These results are taken from PMC8756595 (ACS Omega, 2021).

For this test, the target named is bovine erythrocyte CA II (bCA-II) (Bos taurus, UniProt P00921). The experiment in a line: In vitro carbonic anhydrase inhibition assay. The format is biochemical. The note with it: for % inhibition: bCA-II, substrate 4-NPA, 25 °C, pH 7.4, test concentration not given; for inhibition activity against bCA-II (in words): qualitative statement.
Sequence of bovine erythrocyte CA II (bCA-II) (P00921 whole entry): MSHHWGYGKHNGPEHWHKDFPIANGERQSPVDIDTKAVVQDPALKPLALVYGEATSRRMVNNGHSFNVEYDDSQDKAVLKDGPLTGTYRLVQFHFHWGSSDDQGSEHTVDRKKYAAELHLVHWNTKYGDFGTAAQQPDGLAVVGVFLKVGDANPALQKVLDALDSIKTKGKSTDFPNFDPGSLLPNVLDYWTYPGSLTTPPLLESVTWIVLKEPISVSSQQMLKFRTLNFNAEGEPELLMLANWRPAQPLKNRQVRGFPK

For the molecule `CCCSc1nc2ccccc2n1CC(=O)NN=Cc1ccc(F)cc1` [Compound 24, N′-(4-Fluorobenzylidene)-2-(2-(propylthio)-1H-benzo[d]imidazol-1-yl)acetohydrazide], the IC50 was 162 ± 3.54 µM, the “% inhibition” value is given as 84.3% and the “inhibition activity against bCA-II (in words)” value (from here on “inhibition activity”) is “least active inhibitors”.

For the molecule `CCCSc1nc2ccccc2n1CC(=O)NN=Cc1ccc(O)cc1O` [Compound 14, N′-(2,4-Dihydroxybenzylidene)-2-(2-(propylthio)-1H-benzo[d]imidazol-1-yl)acetohydrazide], the “% inhibition” value was determined as 20.8% and the “inhibition activity” value was “inactive”.

As to `CCCSc1nc2ccccc2n1CC(=O)NN=Cc1ccc(C)cc1` [Compound 19, N′-(4-Methylbenzylidene)-2-(2-(propylthio)-1H-benzo[d]imidazol-1-yl)acetohydrazide], the “% inhibition” value is recorded as 13.6% and the “inhibition activity” value was “inactive”.

As to `CCCSc1nc2ccccc2n1CC(=O)NN=Cc1ccc(N(CC)CC)cc1` [Compound 16, N′-(4-(Diethylamino)benzylidene)-2-(2-(propylthio)-1H-benzo[d]imidazol-1-yl)acetohydrazide], the “% inhibition” value stood at 5.6% and the “inhibition activity” value is “inactive”.

In the case of `CCCSc1nc2ccccc2n1CC(=O)NN=Cc1cccc(O)c1` [Compound 17, N′-(3-Hydroxybenzylidene)-2-(2-(propylthio)-1H-benzo[d]imidazol-1-yl)acetohydrazide], the IC50 was determined as 31.4 ± 2.29 µM, the “% inhibition” value stood at 90.7% and the “inhibition activity” value is “least active inhibitors”.

For `CCCSc1nc2ccccc2n1CC(=O)NN=Cc1ccc(C(C)C)cc1` [Compound 22, N′-(4-Isopropylbenzylidene)-2-(2-(propylthio)-1H-benzo[d]imidazol-1-yl)acetohydrazide], half-maximal inhibition (IC50) was put at 24.7 ± 3 µM and the “% inhibition” value was found to be 90.1%.

For `CCCSc1nc2ccccc2n1CC(=O)NN=Cc1cccc2ccccc12` [Compound 12, N′-(Naphthalen-1-ylmethylene)-2-(2-(propylthio)-1H-benzo[d]imidazol-1-yl)acetohydrazide], the midpoint of inhibition, the IC50, lay at 14.6 ± 0.62 µM and the “% inhibition” value is 91.7%.

For the molecule `CCCSc1nc2ccccc2n1CC(=O)NN=Cc1cccc(OC)c1` [Compound 11, N′-(3-Methoxybenzylidene)-2-(2-(propylthio)-1H-benzo[d]imidazol-1-yl)acetohydrazide], the “% inhibition” value came out at 22.8% and the “inhibition activity” value was “inactive”.

For `CCCSc1nc2ccccc2n1CC(=O)NN=Cc1cccc(OC)c1OC` [Compound 27, N′-(2,3-Dimethoxybenzylidene)-2-(2-(propylthio)-1H-benzo[d]imidazol-1-yl)acetohydrazide], the midpoint of inhibition, the IC50, lay at 55.6 ± 4.25 µM; the “% inhibition” value was determined as 89.6%; the “inhibition activity” value is given as “least active inhibitors”.

In the case of `CCCSc1nc2ccccc2n1CC(=O)NN=Cc1ccc(O)c(OCC)c1` [Compound 20, N′-(3-Ethoxy-4-hydroxybenzylidene)-2-(2-(propylthio)-1H-benzo[d]imidazol-1-yl)acetohydrazide], the IC50 turned out to be 45.5 ± 2.07 µM, the “% inhibition” value is listed as 67.7% and the “inhibition activity” value is listed as “least active inhibitors”.

With `CCCSc1nc2ccccc2n1CC(=O)NN=Cc1c(Cl)cccc1Cl` [Compound 28, N′-(2,6-Dichlorobenzylidene)-2-(2-(propylthio)-1H-benzo[d]imidazol-1-yl)acetohydrazide], half-maximal inhibition (IC50) required 42.1 ± 1.39 µM, the “% inhibition” value is on record as 67.6% and the “inhibition activity” value is “least active inhibitors”.

For the molecule `CCCSc1nc2ccccc2n1CC(=O)NN=Cc1ccc(O)c(OC)c1` [Compound 18, N′-(4-Hydroxy-3-methoxybenzylidene)-2-(2-(propylthio)-1H-benzo[d]imidazol-1-yl)acetohydrazide], half-maximal inhibition (IC50) was put at 22.7 ± 1.37 µM and the “% inhibition” value is 81.2%.

As for `CCCSc1nc2ccccc2n1CC(=O)NN=Cc1ccc(C)o1` [Compound 26, N′-((5-Methylfuran-2-yl)methylene)-2-(2-(propylthio)-1H-benzo[d]imidazol-1-yl)acetohydrazide], it took 166 ± 1.61 µM to reach half-maximal inhibition (IC50), the “% inhibition” value was determined as 67.8% and the “inhibition activity” value is “least active inhibitors”.

Consider `CCCSc1nc2ccccc2n1CC(=O)NN=Cc1ccc(C=O)cc1` [Compound 21, N′-(4-Formylbenzylidene)-2-(2-(propylthio)-1H-benzo[d]imidazol-1-yl)acetohydrazide], for which the “% inhibition” value was determined as 42.2% and the “inhibition activity” value was “inactive”.

For the molecule `CCCSc1nc2ccccc2n1CC(=O)NN=Cc1ccc(OC)cc1OC` [Compound 15, N′-(2,4-Dimethoxybenzylidene)-2-(2-(propylthio)-1H-benzo[d]imidazol-1-yl)acetohydrazide], the IC50 stood at 14.5 ± 1.05 µM and the “% inhibition” value stood at 91.2%.

For the molecule `CCCSc1nc2ccccc2n1CC(=O)NN=Cc1cccc(OC)c1O` [Compound 9, N′-(2-Hydroxy-3-methoxybenzylidene)-2-(2-(propylthio)-1H-benzo[d]imidazol-1-yl)acetohydrazide], half-maximal inhibition (IC50) required 13.3 ± 1.25 µM and the “% inhibition” value turned out to be 89.1%.

Regarding `CCCSc1nc2ccccc2n1CC(=O)NN=Cc1cccs1` [Compound 23, 2-(2-(Propylthio)-1H-benzo[d]imidazol-1-yl)-N′-(thiophen-2-ylmethylene)acetohydrazide], half-maximal inhibition (IC50) required 24.8 ± 1.24 µM and the “% inhibition” value is 89.8%.

For the molecule `CCCSc1nc2ccccc2n1CC(=O)NN=Cc1ccco1` [Compound 25, N′-(Furan-2-ylmethylene)-2-(2-(propylthio)-1H-benzo[d]imidazol-1-yl)acetohydrazide], the midpoint of inhibition, the IC50, lay at 193 ± 3.24 µM; the “% inhibition” value came out at 57.0%; the “inhibition activity” value was “least active inhibitors”.

With `CCCSc1nc2ccccc2n1CC(=O)NN=Cc1ccc(OC)c(OC)c1` [Compound 13, N′-(3,4-Dimethoxybenzylidene)-2-(2-(propylthio)-1H-benzo[d]imidazol-1-yl)acetohydrazide], the “% inhibition” value is on record as 38.1% and the “inhibition activity” value was “inactive”.

Turning to `CCCSc1nc2ccccc2n1CC(=O)NN=Cc1ccccc1` [Compound 10, N′-Benzylidene-2-(2-(propylthio)-1H-benzo[d]imidazol-1-yl)acetohydrazide], the IC50 was 17.2 ± 1.24 µM and the “% inhibition” value was determined as 83.0%.

Take `CCCSc1nc2ccccc2n1CC(=O)NN=Cc1ccccc1OC` [Compound 29, N′-(2-Methoxybenzylidene)-2-(2-(propylthio)-1H-benzo[d]imidazol-1-yl)acetohydrazide]: the IC50 came out at 21 ± 0.74 µM and the “% inhibition” value was determined as 88.2%.

By IC50 is commonly meant the concentration needed to halve the response being measured. The % inhibition is the relative decrease from the control value, in per cent. Lower therefore signals a response near the control.
